Data taken from paper PMC8379256, “A xanthene derivative, DS20060511, attenuates glucose intolerance by inducing skeletal muscle-specific GLUT4 translocation in mice” (Communications Biology, 2021).
“And” between values parts separate entries of the source, which are not always exact repeats. Equal entries are not always repeated.

Tests used:
[1] = tested on: wild-type and GLUT4KO mice; assay: Oral GTT in wild-type and GLUT4 knockout mice; format: in vivo, mouse; conditions: for Blood glucose / Plasma insulin: glucose tolerance test, DS20060511 30 mg/kg, individual animals, 30 mg/kg; for blood glucose and plasma insulin levels during oral GTT (in words): 30 mg kg−1 po
Method: Fig. 3 The glucose-lowering effect of DS20060511 is totally dependent on GLUT4. a Blood glucose and plasma insulin levels during oral GTT in wild-type (WT, n = 5) and GLUT4 knockout (KO, n = 6) mice. Mice received oral administration of vehicle or DS20060511 (30 mg kg^−1), 15 min prior to the glucose administration (1.5 g kg^−1). Values shown are means ± SEM. *P < 0.05, **P < 0.01 vs. vehicle by the t-test. b DS20060511-stimulated [^3H]-2-DG uptake in the isolated soleus and EDL muscles excised from WT (n = 6) and KO (n = 6) mice. Values shown are means ± SEM. **P < 0.01 vs. vehicle by the t-test.
C57BL/6 and db/db mice were purchased from CLEA Japan, Tokyo, Japan. GLUT4- knockout mice were generated at RIKEN BioResource Center, Tsukuba, Japan, according to a previously described method. eNOS-knockout mice were kindly provided by Dr. Masato Tsutsui[41],[42]. The mice were group-housed under controlled illumination (12:12 h light-dark cycle) and temperature (23 ± 2 °C) conditions and given free access to normal chow and water, unless otherwise specified. The HFD-fed obese mice were prepared by feeding C57BL/6 mice a HFD for at least 8 weeks from 6 weeks of age. […] Male mice were used for all the experiments in this study. The animal care and experimental procedures used in the study were approved by The University of Tokyo Animal Care Committee (Approval number: 27-3), and the study was carried out in accordance with the Animal Experimentation Guidelines of Daiichi Sankyo Co., Ltd (Approved number: 20000411).
Mice that had been denied access to food overnight received the indicated oral dose of DS20060511 or vehicle 15 min prior to the glucose load (1.5 g kg^−1, except for eNOS-knockout mice, which received 3.0 g kg^−1). Then, after the oral glucose load, the blood glucose levels were measured using Glutest Every in samples obtained from the tail vein at the indicated timepoints. Plasma insulin concentrations were also measured with an ELISA kit (Morinaga Institute of Biological Science, Yokohama, Japan) in blood samples collected from the tail vein at the indicated timepoints.

AMPKα = AMPKα phosphorylation in triceps surae muscle in vivo; set-up: species or system mouse; conditions: no-exercise condition, 10 mg kg−1, Fig. 6c
Method: The tissue sample was homogenized with a Polytron homogenizer and lysed in a lysis buffer (25 mM Tris-HCl, pH 7.4, 100 mM NaF, 50 mM Na4P2O7, 10 mM EGTA, 10 mM EDTA, 10 mM Na3VO4, 1 mM PMSF, and 1% NP-40) on ice, and the lysate was centrifuged at 17,860 × g for 10 min at 4 °C. The supernatant was collected and the protein concentrations were determined by BCA assay (Thermo Fisher Scientific). Immunoprecipitation of IRβ and IRS1 was performed as described previously, using specific antibodies against IRβ (sc-711, Santa Cruz Biotechnology, Dallas, TX), IRS1 (06-248, Merck Millipore, Burlington, MA), and for detection of phosphotyrosine (05-321, Merck Millipore). Five milligrams of the extracts were incubated with specific antibodies against IRS1 for 1 h at 4 °C. Then, protein G-Sepharose was added, followed by incubation for 2 h at 4 °C. After washing three times, the immunocomplexes were subjected to immunoblotting.
Phosphorylated or total protein of IRβ and IRS1 was resolved on 7% SDS-PAGE and analyzed using specific antibodies against IRβ, IRS1, and phosphotyrosine. […] Bound antibodies were detected with HRP-conjugated secondary antibodies using ECL detection reagents (GE Healthcare, Chicago, IL).

[2] = tested on: mouse liver microsomal fraction; assay: Metabolic stability in mouse liver microsomes; format: in vitro ADME; conditions: after 1 h incubation, 1 μM
Method: C57BL/6 mice that had been denied access to food overnight received the indicated oral dose of DS20060511, and blood samples were collected from the tail vein at the indicated timepoints. Plasma samples for quantitation of DS20060511 were prepared by centrifugation. Another group of mice received oral administration DS20060511 (30 mg kg^−1) and euthanized 75 min later. The soleus and gastrocnemius muscles, heart, and inguinal WAT were removed and homogenized in water (5 vol.) for quantitation of the drug concentrations. Plasma samples and tissue homogenates were analyzed by LC-MS/MS (Nexera MP System, SHIMADZU, Kyoto, Japan; API4000 System, SCIEX, Framingham, MA). The tissue concentrations of the compound were calculated by assuming the volume of 1 g of tissue is 1 mL. Evaluation of the metabolic stability of the compound to mouse and human cytochrome P450 (CYP) was conducted as follows. […] The results were expressed as the amount of compound remaining (expressed as a percentage), based on the ratio of the relative area to that in the control (without reaction).

COc1ccc2c(C)c(C(=O)O)ccc2c1C1C2=C(CC(C)(C)CC2=O)OC2=C1C(=O)CC(C)(C)C2 [DS20060511]
Blood glucose ([1]; GLUT4KO mice, 0 min): 151 mg/dL and 106 mg/dL and 203 mg/dL and 105 mg/dL and 130 mg/dL
Plasma insulin ([1]; GLUT4KO mice, 0 min): 0.11 ng/mL and 0.07 ng/mL and 0.16 ng/mL and 0.12 ng/mL and 0.18 ng/mL
Blood glucose ([1]; GLUT4KO mice, 15 min): 361 mg/dL and 352 mg/dL and 278 mg/dL and 400 mg/dL and 444 mg/dL
Plasma insulin ([1]; GLUT4KO mice, 15 min): 0.43 ng/mL and 0.42 ng/mL and 0.55 ng/mL and 0.33 ng/mL and 0.70 ng/mL and 0.59 ng/mL
Blood glucose ([1]; GLUT4KO mice, 30 min): 422 mg/dL and 387 mg/dL and 377 mg/dL and 384 mg/dL and 492 mg/dL and 513 mg/dL
Plasma insulin ([1]; GLUT4KO mice, 30 min): 0.34 ng/mL and 0.39 ng/mL and 0.25 ng/mL and 0.30 ng/mL and 0.28 ng/mL
Blood glucose ([1]; GLUT4KO mice, 60 min): 272 mg/dL and 266 mg/dL and 232 mg/dL and 390 mg/dL and 329 mg/dL and 389 mg/dL
Blood glucose ([1]; GLUT4KO mice, 90 min): 175 mg/dL and 168 mg/dL and 194 mg/dL and 265 mg/dL and 245 mg/dL and 275 mg/dL
Blood glucose ([1]; GLUT4KO mice, 120 min): 115 mg/dL and 112 mg/dL and 165 mg/dL and 193 mg/dL and 153 mg/dL and 190 mg/dL
Blood glucose ([1]; GLUT4KO mice, -15 min): 93 mg/dL and 75 mg/dL and 110 mg/dL and 49 mg/dL and 95 mg/dL and 89 mg/dL
Plasma insulin ([1]; GLUT4KO mice, -15 min): 0.06 ng/mL and 0.10 ng/mL and 0.11 ng/mL and 0.18 ng/mL and 0.13 ng/mL and 0.14 ng/mL
blood glucose and plasma insulin levels during oral GTT (in words) ([1]; GLUT4KO mice): completely abolished
Blood glucose ([1]; Wildtype mice, 0 min): 69 mg/dL and 44 mg/dL and 58 mg/dL and 62 mg/dL and 46 mg/dL
Plasma insulin ([1]; Wildtype mice, 0 min): 0.10 ng/mL and 0.02 ng/mL and 0.13 ng/mL and 0.14 ng/mL
Blood glucose ([1]; Wildtype mice, 15 min): 133 mg/dL and 103 mg/dL and 142 mg/dL and 181 mg/dL and 104 mg/dL
Plasma insulin ([1]; Wildtype mice, 15 min): 0.16 ng/mL and 0.14 ng/mL and 0.17 ng/mL and 0.18 ng/mL and 0.11 ng/mL
Blood glucose ([1]; Wildtype mice, 30 min): 124 mg/dL and 111 mg/dL and 100 mg/dL and 107 mg/dL
Plasma insulin ([1]; Wildtype mice, 30 min): 0.26 ng/mL and 0.10 ng/mL and 0.15 ng/mL
Blood glucose ([1]; Wildtype mice, 60 min): 92 mg/dL and 64 mg/dL and 99 mg/dL and 91 mg/dL and 76 mg/dL
Blood glucose ([1]; Wildtype mice, 90 min): 71 mg/dL and 61 mg/dL and 87 mg/dL and 88 mg/dL and 68 mg/dL
Blood glucose ([1]; Wildtype mice, 120 min): 74 mg/dL and 72 mg/dL and 70 mg/dL and 78 mg/dL and 82 mg/dL
Blood glucose ([1]; Wildtype mice, -15 min): 66 mg/dL and 39 mg/dL and 48 mg/dL and 81 mg/dL and 64 mg/dL
Plasma insulin ([1]; Wildtype mice, -15 min): 0.14 ng/mL and 0.18 ng/mL and 0.11 ng/mL
blood glucose and plasma insulin levels during oral GTT (in words) ([1]; wild-type (WT) mice): significant decrease of the blood glucose and plasma insulin levels
AMPK phosphorylation level in the skeletal muscle (AMPKα): remained unchanged
compound remaining [2]: 89%
